Test results as given in patent publication US20250268884A1, “Deuterated Domperidone for Treating Gastroparesis” (CinDome Pharma, Inc., priority 2022, published 2025).

Columns and labels:
[1] = Thorough QT study, plasma pharmacokinetics; type: in vivo, human; conditions: healthy subjects
Text: Blood samples for PK determination were drawn at the same time points immediately after the ECG extractions.

[2] = system: adults with idiopathic or diabetic gastroparesis; experiment: PAGI-SYM questionnaire total and subscale scores, Phase 2a; type: in vivo, human; conditions: for PAGI-SYM bloating subscale score, Baseline / PAGI-SYM bloating subscale score, Change from baseline to Day 14 / PAGI-SYM bloating subscale score, Day 14 / PAGI-SYM bloating subscale score, Percent change from baseline to Day 14 / PAGI-SYM fullness/early satiety subscale score, Baseline / PAGI-SYM fullness/early satiety subscale score, Change from baseline to Day 14 / PAGI-SYM fullness/early satiety subscale score, Day 14 / PAGI-SYM fullness/early satiety subscale score, Percent change from baseline to Day 14 / PAGI-SYM heartburn/regurgitation subscale score, Baseline / PAGI-SYM heartburn/regurgitation subscale score, Change from baseline to Day 14 / PAGI-SYM heartburn/regurgitation subscale score, Day 14 / PAGI-SYM heartburn/regurgitation subscale score, Percent change from baseline to Day 14 / PAGI-SYM lower abdominal pain subscale score, Baseline / PAGI-SYM lower abdominal pain subscale score, Change from baseline to Day 14 / PAGI-SYM lower abdominal pain subscale score, Day 14 / PAGI-SYM lower abdominal pain subscale score, Percent change from baseline to Day 14 / PAGI-SYM nausea/vomiting subscale score, Baseline / PAGI-SYM nausea/vomiting subscale score, Change from baseline to Day 14 / PAGI-SYM nausea/vomiting subscale score, Day 14 / PAGI-SYM nausea/vomiting subscale score, Percent change from baseline to Day 14 / PAGI-SYM total score, Baseline / PAGI-SYM total score, Change from baseline to Day 14 / PAGI-SYM total score, Day 14 / PAGI-SYM total score, Percent change from baseline to Day 14 / PAGI-SYM upper abdominal pain subscale score, Baseline / PAGI-SYM upper abdominal pain subscale score, Change from baseline to Day 14 / PAGI-SYM upper abdominal pain subscale score, Day 14 / PAGI-SYM upper abdominal pain subscale score, Percent change from baseline to Day 14: mean, Safety Population
Experimental: Subjects were Evaluated as Follows: • Days −28 to −11: Screening procedures were performed. The ANMS GCSI-DD questionnaire was completed daily for at least 14 days prior to randomization (Day 1); • Days −10 to −3: The ANMS GCSI-DD questionnaire was completed daily. A GEBT was performed on a single day within this window, with breath samples obtained twice prior to consumption of a standardized, carbon-13 (^13C)-enriched meal and then at 45, 90, 120, 150, 180, and 240 minutes after meal consumption after an 8-hour fast. […] On Day 14 (±2 days), the PAGI-SYM and Clinical Grading Assessment questionnaires were completed prior to the final dose of study drug. • A GEBT was administered 30 minutes after study drug administration on Day 14 (±2 days). Breath samples were obtained twice prior to ^13C-enriched meal consumption and then at 45, 90, 120, 150, 180, and 240 minutes after meal consumption after an 8-hour fast. If a subject withdrew from the study prior to the Day 14 (±2 days) GEBT, attempts should have been made to perform a GEBT on the last day of study drug administration. Clinical Grading Assessment Scales were also performed.
The PAGI-SYM includes 6 subscales: heartburn/regurgitation, fullness/early satiety, nausea/vomiting, bloating, upper abdominal pain, and lower abdominal pain.

clinical = conditions: human, plasma, oral
Experimental: The following PK parameters were calculated for deuterated domperidone from plasma concentrations (Day 1) using a noncompartmental method, if the data permitted: • Cmax determined directly from the concentration-time profile.
[formula] • λz calculated from a semi-logarithmic plot of the plasma concentration versus time curve. The parameter was calculated by linear least-squares regression analysis using points in the terminal logarithmic-linear phase; • T½ calculated as natural logarithm (2)/λz; • CL/F calculated as Dose/AUC0-∞; • Vz/F calculated as Dose/(λz×AUC0-∞); • Rcmax calculated as Cmax on Day 14/Cmax on Day 1; and • RAUC calculated as AUCtau on Day 14/AUCtau on Day 1.

## [2H]c1c([2H])c([2H])c2c([nH]c(=O)n2CCCN2CCC(n3c(=O)[nH]c4cc(Cl)ccc43)CC2)c1[2H] [Deudomperidone, 1-{3-[4-(5-chloro-2-oxo-2,3-dihydro-1H-1,3-benzodiazol-1-yl)piperidin-1yl]propyl}-2,3-dihydro(4,5,6,7-D4)-1H-1,3-benzodiazol-2-one]
[1]; 30 mg single dose
  time of highest mean plasma concentration of deuterated domperidone: 1.5 hours post-dose
[1]; 100 mg single dose
  time of highest mean plasma concentration of deuterated domperidone: 2 hours post-dose
[2]; 5 mg BID
  PAGI-SYM bloating subscale score, Baseline: 3.67
  PAGI-SYM bloating subscale score, Change from baseline to Day 14: −1.00
  PAGI-SYM bloating subscale score, Day 14: 2.67
  PAGI-SYM bloating subscale score, Percent change from baseline to Day 14: −30.16%
  PAGI-SYM fullness/early satiety subscale score, Baseline: 3.89
  PAGI-SYM fullness/early satiety subscale score, Change from baseline to Day 14: −1.53
  PAGI-SYM fullness/early satiety subscale score, Day 14: 2.36
  PAGI-SYM fullness/early satiety subscale score, Percent change from baseline to Day 14: −38.04%
  PAGI-SYM heartburn/regurgitation subscale score, Baseline: 3.63
  PAGI-SYM heartburn/regurgitation subscale score, Change from baseline to Day 14: −1.79
  PAGI-SYM heartburn/regurgitation subscale score, Day 14: 1.84
  PAGI-SYM heartburn/regurgitation subscale score, Percent change from baseline to Day 14: −50.23%
  PAGI-SYM lower abdominal pain subscale score, Baseline: 3.11
  PAGI-SYM lower abdominal pain subscale score, Change from baseline to Day 14: −1.67
  PAGI-SYM lower abdominal pain subscale score, Day 14: 1.44
  PAGI-SYM lower abdominal pain subscale score, Percent change from baseline to Day 14: −52.08%
  PAGI-SYM nausea/vomiting subscale score, Baseline: 2.74
  PAGI-SYM nausea/vomiting subscale score, Change from baseline to Day 14: −1.00
  PAGI-SYM nausea/vomiting subscale score, Day 14: 1.74
  PAGI-SYM nausea/vomiting subscale score, Percent change from baseline to Day 14: −39.58%
  PAGI-SYM total score, Baseline: 3.37
  PAGI-SYM total score, Change from baseline to Day 14: −1.35
  PAGI-SYM total score, Day 14: 2.02
  PAGI-SYM total score, Percent change from baseline to Day 14: −40.13%
  PAGI-SYM upper abdominal pain subscale score, Baseline: 3.17
  PAGI-SYM upper abdominal pain subscale score, Change from baseline to Day 14: −1.11
  PAGI-SYM upper abdominal pain subscale score, Day 14: 2.06
  PAGI-SYM upper abdominal pain subscale score, Percent change from baseline to Day 14: −37.28%
[2]; 10 mg BID
  PAGI-SYM bloating subscale score, Baseline: 3.84
  PAGI-SYM bloating subscale score, Change from baseline to Day 14: −1.17
  PAGI-SYM bloating subscale score, Day 14: 2.65
  PAGI-SYM bloating subscale score, Percent change from baseline to Day 14: −26.78%
  PAGI-SYM fullness/early satiety subscale score, Baseline: 3.60
  PAGI-SYM fullness/early satiety subscale score, Change from baseline to Day 14: −0.88
  PAGI-SYM fullness/early satiety subscale score, Day 14: 2.71
  PAGI-SYM fullness/early satiety subscale score, Percent change from baseline to Day 14: −24.08%
  PAGI-SYM heartburn/regurgitation subscale score, Baseline: 2.67
  PAGI-SYM heartburn/regurgitation subscale score, Change from baseline to Day 14: −1.07
  PAGI-SYM heartburn/regurgitation subscale score, Day 14: 1.62
  PAGI-SYM heartburn/regurgitation subscale score, Percent change from baseline to Day 14: −25.45%
  PAGI-SYM lower abdominal pain subscale score, Baseline: 2.02
  PAGI-SYM lower abdominal pain subscale score, Change from baseline to Day 14: −0.79
  PAGI-SYM lower abdominal pain subscale score, Day 14: 1.25
  PAGI-SYM lower abdominal pain subscale score, Percent change from baseline to Day 14: −38.38%
  PAGI-SYM nausea/vomiting subscale score, Baseline: 2.75
  PAGI-SYM nausea/vomiting subscale score, Change from baseline to Day 14: −0.93
  PAGI-SYM nausea/vomiting subscale score, Day 14: 1.78
  PAGI-SYM nausea/vomiting subscale score, Percent change from baseline to Day 14: −30.39%
  PAGI-SYM total score, Baseline: 2.94
  PAGI-SYM total score, Change from baseline to Day 14: −0.97
  PAGI-SYM total score, Day 14: 1.97
  PAGI-SYM total score, Percent change from baseline to Day 14: −31.18%
  PAGI-SYM upper abdominal pain subscale score, Baseline: 2.74
  PAGI-SYM upper abdominal pain subscale score, Change from baseline to Day 14: −0.97
  PAGI-SYM upper abdominal pain subscale score, Day 14: 1.82
  PAGI-SYM upper abdominal pain subscale score, Percent change from baseline to Day 14: −24.47%
[2]; 20 mg QD
  PAGI-SYM bloating subscale score, Baseline: 3.57
  PAGI-SYM bloating subscale score, Change from baseline to Day 14: −1.10
  PAGI-SYM bloating subscale score, Day 14: 2.47
  PAGI-SYM bloating subscale score, Percent change from baseline to Day 14: −36.38%
  PAGI-SYM fullness/early satiety subscale score, Baseline: 3.42
  PAGI-SYM fullness/early satiety subscale score, Change from baseline to Day 14: −1.10
  PAGI-SYM fullness/early satiety subscale score, Day 14: 2.32
  PAGI-SYM fullness/early satiety subscale score, Percent change from baseline to Day 14: −31.45%
  PAGI-SYM heartburn/regurgitation subscale score, Baseline: 2.68
  PAGI-SYM heartburn/regurgitation subscale score, Change from baseline to Day 14: −1.06
  PAGI-SYM heartburn/regurgitation subscale score, Day 14: 1.62
  PAGI-SYM heartburn/regurgitation subscale score, Percent change from baseline to Day 14: −34.56%
  PAGI-SYM lower abdominal pain subscale score, Baseline: 1.93
  PAGI-SYM lower abdominal pain subscale score, Change from baseline to Day 14: −0.40
  PAGI-SYM lower abdominal pain subscale score, Day 14: 1.53
  PAGI-SYM lower abdominal pain subscale score, Percent change from baseline to Day 14: −10.91%
  PAGI-SYM nausea/vomiting subscale score, Baseline: 2.49
  PAGI-SYM nausea/vomiting subscale score, Change from baseline to Day 14: −1.20
  PAGI-SYM nausea/vomiting subscale score, Day 14: 1.29
  PAGI-SYM nausea/vomiting subscale score, Percent change from baseline to Day 14: −50.18%
  PAGI-SYM total score, Baseline: 2.72
  PAGI-SYM total score, Change from baseline to Day 14: −0.93
  PAGI-SYM total score, Day 14: 1.80
  PAGI-SYM total score, Percent change from baseline to Day 14: −39.03%
  PAGI-SYM upper abdominal pain subscale score, Baseline: 2.27
  PAGI-SYM upper abdominal pain subscale score, Change from baseline to Day 14: −0.70
  PAGI-SYM upper abdominal pain subscale score, Day 14: 1.57
  PAGI-SYM upper abdominal pain subscale score, Percent change from baseline to Day 14: −32.81%
[2]; all deudomperidone treatment groups, placebo also decreased
  PAGI-SYM total and subscale scores at Day 14: decreased from baseline
clinical; 5 mg, Tmax, Day 1 (single dose), 5 mg BID, median, plasma deuterated domperidone
  Tmax: 2 h
clinical; 5 mg, Tmax, Day 14 (steady state), 5 mg BID, median, plasma deuterated domperidone
  Tmax: 2 h
clinical; 10 mg, Tmax, Day 1 (single dose), 10 mg BID, median, plasma deuterated domperidone
  Tmax: 2 h
clinical; 10 mg, Tmax, Day 14 (steady state), 10 mg BID, median, plasma deuterated domperidone
  Tmax: 2 h
clinical; 20 mg, Tmax, Day 1 (single dose), 20 mg QD, median, plasma deuterated domperidone
  Tmax: 2.5 h
clinical; 20 mg, Tmax, Day 14 (steady state), 20 mg QD, median, plasma deuterated domperidone
  Tmax: 2 h
clinical; median Tmax, across dose groups (5 mg BID, 10 mg BID, 20 mg QD), patients with gastroparesis
  Tmax: 2 to 2.5 h
